Laboratory results reported in patent publication US20080045537A1, “Chemical Compounds” (priority 2004, published 2008).
Like-named read-outs stand apart in the source and are kept apart here.

Tested on: HIV-1 IIIB (T-tropic, CXCR4 utilizing)
Test: HOS HIV-1 infectivity assay
Assay type: cell-based
Settings: Human immunodeficiency virus 1, IIIB, read-out: Activity Level
Procedure: Compounds were profiled against two HIV-1 viruses, the M-tropic (CCR5 utilizing) Ba-L strain and the T-tropic (CXCR4 utilizing) IIIB strain. Both viruses were propagated in human peripheral blood lymphocytes. Compounds were tested for there ability to block infection of the HOS cell line (expressing hCXCR4/hCCR5/hCD4/pHIV-LTR-luciferase) by either HIV-1 Ba-L or HIV-1 IIIB. Compound cytotoxicity was also examined in the absence of virus addition.
HOS cells (expressing hCXCR4/hCCR5/hCD4/pHIV-LTR-luciferase) were harvested and diluted in Dulbeccos modified Eagles media supplemented with 2% FCS and non-essential amino acid to a concentration of 60,000 cells/ml. The cells were plated into 96-well plates (100 ul per well) and the plates were placed in a tissue culture incubator (37° C.; 5% CO2/95% air) for a period of 24 h.
Subsequently, 50 ul of the desired drug solution (4 times the final concentration) was added to each well and the plates were returned to the tissue culture incubator (37° C.; 5% CO2/95% air) for 1 h. Following this incubation 50 ul of diluted virus was added to each well (approximately 2 million RLU per well of virus). The plates were returned to the tissue culture incubator (37° C.; 5% CO2/95% air) and were incubated for a further 96 h.
Following this incubation the endpoint for the virally infected cultures was quantified following addition of Steady-Glo Luciferase assay system reagent (Promega, Madison, Wis.). Cell viability or non-infected cultures was measured using a CellTiter-Glo luminescent cell viability assay system (Promega, Madison, Wis.). All luminescent readouts are performed on a Topcount luminescence detector (Packard, Meridien, Conn.).

[1] = as determined by the infectivity assay, strain not stated in Table 2

Row | SMILES | IC50 [1] [nM] | IC50 [nM]
1 | CN(Cc1nc2c(C(=O)NCCc3cncn3C)cccc2[nH]1)C1CCCc2cccnc21 (stereo not drawn) [Example 67, N-[2-(1-methyl-1H-imidazol-5-yl)ethyl]-2-{[methyl(5,6,7,8-tetrahydro-8-quinolinyl)amino]methyl}-1H-benzimidazole-4-carboxamide] | 100 to 500 | –
2 | CN(Cc1nc2c(C(=O)N3CCN(Cc4ccccn4)CC3)cccc2[nH]1)C1CCCc2cccnc21 (stereo not drawn) [Example 68, N-Methyl-N-[(4-{[4-(2-pyridinylmethyl)-1-piperazinyl]-carbonyl}-1H-benzimidazol-2-yl)methyl]-5,6,7,8-tetrahydro-8-quinolinamine] | 500 to 10000 | –
3 | CN(Cc1nc2c(C(=O)NCCc3cccnc3)cccc2[nH]1)C1CCCc2cccnc21 (stereo not drawn) [Example 69, 2-{[Methyl(5,6,7,8-tetrahydro-8-quinolinyl)amino]methyl}-N-[2-(3-pyridinyl)ethyl]-1H-benzimidazole-4-carboxamide] | 500 to 10000 | –
4 | CN(Cc1nc2c(C(=O)NCCc3ccncc3)cccc2[nH]1)C1CCCc2cccnc21 (stereo not drawn) [Example 71, 2-{[Methyl(5,6,7,8-tetrahydro-8-quinolinyl)amino]methyl}-N-[2-(4-pyridinyl)ethyl]-1H-benzimidazole-4-carboxamide] | 500 to 10000 | –
5 | CN1CCN(CCCNC(=O)c2cccc3[nH]c(CN(C)C4CCCc5cccnc54)nc23)CC1 (stereo not drawn) [Example 73, N-[3-(4-Methyl-1-piperazinyl)propyl]-2-{[methyl(5,6,7,8-tetrahydro-8-quinolinyl)amino]methyl}-1H-benzimidazole-4-carboxamide] | 100 to 500 | –
6 | CN(Cc1nc2c(C(=O)NCCCN3CCOCC3)cccc2[nH]1)C1CCCc2cccnc21 (stereo not drawn) [Example 74, 2-{[Methyl(5,6,7,8-tetrahydro-8-quinolinyl)amino]methyl}-N-[3-(4-morpholinyl)propyl]-1H-benzimidazole-4-carboxamide] | < 100 | –
7 | CN(Cc1nc2c(C(=O)NCc3nc4ccccc4[nH]3)cccc2[nH]1)C1CCCc2cccnc21 (stereo not drawn) [Example 75, N-(1H-Benzimidazol-2-ylmethyl)-2-{[methyl(5,6,7,8-tetrahydro-8-quinolinyl)amino]methyl}-1H-benzimidazole-4-carboxamide] | < 100 | –
8 | CN(Cc1nc2c(C(=O)NCCc3ccccn3)cccc2[nH]1)C1CCCc2cccnc21 (stereo not drawn) [Example 76, 2-{[Methyl(5,6,7,8-tetrahydro-8-quinolinyl)amino]methyl}-N-[2-(2-pyridinyl)ethyl]-1H-benzimidazole-4-carboxamide] | 100 to 500 | –
9 | CN(Cc1nc2c(C(=O)NC3CCNCC3)cccc2[nH]1)C1CCCc2cccnc21 (stereo not drawn) [Example 77, 2-{[Methyl(5,6,7,8-tetrahydro-8-quinolinyl)amino]methyl}-N-4-piperidinyl-1H-benzimidazole-4-carboxamide] | 100 to 500 | –
10 | CN(Cc1nc2c(C(=O)NC3CCNC3)cccc2[nH]1)C1CCCc2cccnc21 (stereo not drawn) [Example 78, 2-{[Methyl(5,6,7,8-tetrahydro-8-quinolinyl)amino]methyl}-N-3-pyrrolidinyl-1H-benzimidazole-4-carboxamide] | < 100 | –
11 | CN(Cc1nc2c(C(=O)NCCCn3ccnc3)cccc2[nH]1)C1CCCc2cccnc21 (stereo not drawn) [Example 79, N-[3-(1H-Imidazol-1-yl)propyl]-2-{[methyl(5,6,7,8-tetrahydro-8-quinolinyl)amino]methyl}-1H-benzimidazole-4-carboxamide] | < 100 | –
12 | CN(C)CC(C)(C)CNC(=O)c1cccc2[nH]c(CN(C)C3CCCc4cccnc43)nc12 (stereo not drawn) [Example 80, N-[3-(Dimethylamino)-2,2-dimethylpropyl]-2-{[methyl(5,6,7,8-tetrahydro-8-quinolinyl)amino]methyl}-1H-benzimidazole-4-carboxamide] | 100 to 500 | –
13 | CN(Cc1nc2c(C(=O)NCCc3c[nH]c4ccccc34)cccc2[nH]1)C1CCCc2cccnc21 (stereo not drawn) [Example 81, N-[2-(1H-Indol-3-yl)ethyl]-2-{[methyl(5,6,7,8-tetrahydro-8-quinolinyl)amino]methyl}-1H-benzimidazole-4-carboxamide] | 500 to 10000 | –
14 | CN(Cc1nc2c(C(=O)N3CCC(N)CC3)cccc2[nH]1)C1CCCc2cccnc21 (stereo not drawn) [Example 82, N-({4-[(4-Amino-1-piperidinyl)carbonyl]-1H-benzimidazol-2-yl}methyl)-N-methyl-5,6,7,8-tetrahydro-8-quinolinamine] | < 100 | –
15 | CN(Cc1nc2c(C(=O)N3CCC(N)C3)cccc2[nH]1)C1CCCc2cccnc21 (stereo not drawn) [Example 83, N-({4-[(3-amino-1-pyrrolidinyl)carbonyl]-1H-benzimidazol-2-yl}methyl)-N-methyl-5,6,7,8-tetrahydro-8-quinolinamine] | < 100 | –
16 | CC(=O)N1CCN(C(=O)c2cccc3[nH]c(CN(C)C4CCCc5cccnc54)nc23)CC1 (stereo not drawn) [Example 84, N-({4-[(4-Acetyl-1-piperazinyl)carbonyl]-1H-benzimidazol-2-yl}methyl)-N-methyl-5,6,7,8-tetrahydro-8-quinolinamine] | 100 to 500 | –
17 | CCS(=O)(=O)N1CCN(C(=O)c2cccc3[nH]c(CN(C)C4CCCc5cccnc54)nc23)CC1 (stereo not drawn) [Example 85, N-[(4-{[4-(Ethylsulfonyl)-1-piperazinyl]carbonyl}-1H-benzimidazol-2-yl)methyl]-N-methyl-5,6,7,8-tetrahydro-8-quinolinamine] | 100 to 500 | –
18 | CN1CCCN(C(=O)c2cccc3[nH]c(CN(C)C4CCCc5cccnc54)nc23)CC1 (stereo not drawn) [Example 86, N-Methyl-N-({4-[(4-methylhexahydro-1H-1,4-diazepin-1-yl)carbonyl]-1H-benzimidazol-2-yl}methyl)-5,6,7,8-tetrahydro-8-quinolinamine] | < 100 | –
19 | CC(C)N1CCN(C(=O)c2cccc3[nH]c(CN(C)C4CCCc5cccnc54)nc23)CC1 (stereo not drawn) [Example 87, N-Methyl-N-[(4-{[4-(1-methylethyl)-1-piperazinyl]carbonyl}-1H-benzimidazol-2-yl)methyl]-5,6,7,8-tetrahydro-8-quinolinamine] | 100 to 500 | –
20 | CN1CCC(NC(=O)c2cccc3[nH]c(CN(C)C4CCCc5cccnc54)nc23)CC1 (stereo not drawn) [Example 88, N-(1-methyl-4-piperidinyl)-2-{[methyl(5,6,7,8-tetrahydro-8-quinolinyl)amino]methyl}-1H-benzimidazole-4-carboxamide] | 100 to 500 | –
21 | CN(C)C1CCN(C(=O)c2cccc3[nH]c(CN(C)C4CCCc5cccnc54)nc23)C1 (stereo not drawn) [Example 89, N-[(4-{[3-(Dimethylamino)-1-pyrrolidinyl]carbonyl}-1H-benzimidazol-2-yl)methyl]-N-methyl-5,6,7,8-tetrahydro-8-quinolinamine] | 100 to 500 | –
22 | CN(CCc1c[nH]cn1)C(=O)c1cccc2[nH]c(CN(C)C3CCCc4cccnc43)nc12 (stereo not drawn) [Example 90, N-[2-(1H-imidazol-4-yl)ethyl]-N-methyl-2-{[methyl(5,6,7,8-tetrahydro-8-quinolinyl)amino]methyl}-1H-benzimidazole-4-carboxamide] | < 100 | –
23 | CC1CNCCN1C(=O)c1cccc2[nH]c(CN(C)C3CCCc4cccnc43)nc12 (stereo not drawn) [Example 91, N-methyl-N-({4-[(2-methyl-1-piperazinyl)carbonyl]-1H-benzimidazol-2-yl}methyl)-5,6,7,8-tetrahydro-8-quinolinamine] | < 100 | –
24 | CN(Cc1nc2c(C(=O)N3C[C@@H]4C[C@H]3CN4)cccc2[nH]1)C1CCCc2cccnc21 (stereo partly drawn) [Example 92, N-({4-[(1S,4S)-2,5-diazabicyclo[2.2.1]hept-2-ylcarbonyl]-1H-benzimidazol-2-yl}methyl)-N-methyl-5,6,7,8-tetrahydro-8-quinolinamine] | – | < 100
25 | CN(Cc1nc2c(C(=O)N3CCCNCC3)cccc2[nH]1)C1CCCc2cccnc21 (stereo not drawn) [Example 93, N-{[4-(hexahydro-1H-1,4-diazepin-1-ylcarbonyl)-1H-benzimidazol-2-yl]methyl}-N-methyl-5,6,7,8-tetrahydro-8-quinolinamine] | < 100 | –
26 | CN(C)CCCc1cccc2[nH]c(CN(C)C3CCCc4cccnc43)nc12 (stereo not drawn) [Example 94, N-({4-[3-(Dimethylamino)propyl]-1H-benzimidazol-2-yl}methyl)-N-methyl-5,6,7,8-tetrahydro-8-quinolinamine] | < 100 | –
27 | CN(Cc1nc2c(CCCN3CCCC3)cccc2[nH]1)C1CCCc2cccnc21 (stereo not drawn) [Example 95, N-Methyl-N-({4-[3-(1-pyrrolidinyl)propyl]-1H-benzimidazol-2-yl}methyl)-5,6,7,8-tetrahydro-8-quinolinamine] | < 100 | –
28 | CN(Cc1nc2c(CCCN3CCCCC3)cccc2[nH]1)C1CCCc2cccnc21 (stereo not drawn) [Example 96, N-methyl-N-({4-[3-(1-piperidinyl)propyl]-1H-benzimidazol-2-yl}methyl)-5,6,7,8-tetrahydro-8-quinolinamine] | < 100 | –
29 | CN(Cc1nc2c(CCCN)cccc2[nH]1)C1CCCc2cccnc21 (stereo not drawn) [Example 97, N-{[4-(3-aminopropyl)-1H-benzimidazol-2-yl]methyl}-N-methyl-5,6,7,8-tetrahydro-8-quinolinamine] | < 100 | –
30 | CN(Cc1nc2c(NC(=O)CN)cccc2[nH]1)C1CCCc2cccnc21 (stereo not drawn) [Example 99, N^1-(2-{[methyl(5,6,7,8-tetrahydro-8-quinolinyl)amino]methyl}-1H-benzimidazol-4-yl)glycinamide] | 100 to 500 | –
